The structures appear in SMILES notation.

Results on 3 compounds are retold here after paper PMC8066102, “Metabolic Profiles of New Unsymmetrical Bisacridine Antitumor Agents in Electrochemical and Enzymatic Noncellular Systems and in Tumor Cells” (Pharmaceuticals, 2021).

In one data set the target is T1, UGT 1A6 (Homo sapiens, UniProt P19224).
T1 construct: His tag; purchased Corning, NY, USA (through DIAG-MED, Poland); host or cells: baculovirus-insect cells (Supersomes); Results say Sf9 cells
T1 sequence (P19224 27-532): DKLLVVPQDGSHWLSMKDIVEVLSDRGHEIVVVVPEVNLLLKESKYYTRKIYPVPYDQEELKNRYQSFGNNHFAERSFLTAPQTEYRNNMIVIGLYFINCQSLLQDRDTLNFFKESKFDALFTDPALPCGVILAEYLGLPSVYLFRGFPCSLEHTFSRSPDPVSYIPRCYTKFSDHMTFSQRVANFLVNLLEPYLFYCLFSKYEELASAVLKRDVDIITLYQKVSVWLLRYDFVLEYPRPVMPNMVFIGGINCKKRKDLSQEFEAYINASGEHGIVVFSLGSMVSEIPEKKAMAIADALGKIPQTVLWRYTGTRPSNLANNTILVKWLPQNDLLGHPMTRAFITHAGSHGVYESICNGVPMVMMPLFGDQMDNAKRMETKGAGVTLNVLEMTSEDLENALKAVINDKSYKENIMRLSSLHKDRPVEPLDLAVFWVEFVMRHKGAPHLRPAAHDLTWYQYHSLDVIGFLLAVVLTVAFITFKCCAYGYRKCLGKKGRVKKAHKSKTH
Kind of data set: Glucuronidation with recombinant UGT1A6. It counts as in vitro ADME. Also on record: key: −: the lack of UGT activity; +: the significant UGT activity. The settings on record: 0.05 mM compound, 1 mg/mL UGT, 5 mM UDPGA. Here is the method: Recombinant UGT isoform protein (1 mg/mL) was assayed for activity toward tested UAs as follows. The proteins were incubated in a buffer containing 0.1 M HEPES (pH 7.4), 8 mM MgCl2 and alamethicin (25 μg/mL) with either 0.05 mM substrate in total volume 70 µL (alamethicin was added to permeabilize the membrane). Substrates were also in buffer HEPES, pH 7.4. Reactions were started by the addition of UDPGA (5 mM) and were incubated for specified time at 37 °C. The reactions were stopped by the addition of 8.75 µL of 1 M HCl, followed by centrifugation at 13400 rpm for 10 min to pellet the denatured protein. The supernatant fractions were used for HPLC analysis. Control reactions omitting substrate were run with each assay. All incubations were performed in two repetitions.

Data set [1] is described as follows: Differential pulse voltammetry on glassy carbon electrode. It counts as physicochemical. The following applies: 0.5–20 µM, 0.02 M borate buffer with 0.15 M NaCl, pH 7.4, glassy carbon electrode, vs Ag/AgCl/3 M KCl. As for the experimental part: To minimize the effects of electrode absorption processes on the current signals, differential pulse voltammetry (DPV) was applied in the positive potential range. […] This behavior was not observed in the case of C-2045, where only one anodic signal at a potential of approximately 0.52 V was observed over the entire studied concentration range (0.5–20 µM). The linear dependency, I = f (cUAs), confirmed that the obtained anodic current signals can be used for analytical purposes; however, the signal of C-2028 was linear over a narrower concentration range than in the case of C-2045.
Cyclic voltammetry (CV) and differential pulse voltammetry (DVP) were performed in 0.02 M borate buffer with 0.15 M NaCl, in water pH 7.4. with Autolab, model PGSTAT 12 potentiostat equipped with an ECD amplifier module (RC time settings: 0.0 s for scan rates > 10 mV/s and 0.1 s for scan rates < 10 mV/s). The voltammetric measurements were done in the three-electrode system consisting of the working electrode (glassy carbon electrode, GCE; ϕ = 3 mm; BAS Instruments), the reference electrode (Ag/AgCl/3 M KCl) and a platinum wire as the auxiliary electrode. Before each experiment the surface of working electrode was polished with 1 μm Al2O3 powder on a wet pad. After each polishing, to remove alumina completely from the electrode surface, the surface was rinsed with direct stream of ultrapure water. […]

The subject of the next data set is HCT-116 cells. Kind of data set: Drug metabolism in HCT-116 colon tumor cells. In kind it is cell-based, human. The following applies: HCT-116 (low UGT expression), 50 μM, medium and cell extract, up to 24 h. Here is the method: To analyze the transformation products of UAs in colon tumor cell lines, HCT-116 or HT-29 cells were plated in 60 mm Petri dishes; after reaching 80% of confluence, cells were treated with 5/25/50 μM of C-2028, C-2045 or C-2053 (prepared as 10 or 2 mM stock solutions in water) for specified time. Half of medium was added to acetonitrile (1:1, v/v), centrifuged (12 min, 13,400 rpm, 4 °C) and the supernatant was analyzed by HPLC (post-culture medium). Cells remaining on the Petri dishes were collected by gentle scraping, sedimented, washed with ice-cold PBS, suspended in ice-cold chloroform and lysed by sonication for 15 min. After 1 h on ice, insoluble material was removed by centrifugation at 13,000 rpm for 20 min at 4 °C. The sediment was discarded and supernatant (chloroform) were evaporated under pressure. Then, sample was suspended in ice-cold 60% methanol and directly analyzed by HPLC (cell extract).

On to `Cc1ccc([N+](=O)[O-])c2c(NCCCN(C)CCCNc3ccc4ncn5c6ccccc6c(=O)c3c45)c3ccccc3nc12` [C-2053], for which, on UGT 1A6, the “Glucuronidation potency UGT 1A6” value is listed as “−”.

Regarding `Cc1ccc([N+](=O)[O-])c2c(NCCCN(C)CCCNc3ccc4ncn5c6ccc(O)cc6c(=O)c3c45)c3ccccc3nc12` [C-2045], the “DPV anodic signal potential” value in data set [1] is given as “approximately 0.52 V”. Further, the “metabolite formation in cells” value in the data set on HCT-116 cells is “No metabolite products were observed”.

For the compound `CN(CCCNc1c2ccccc2nc2cccc([N+](=O)[O-])c12)CCCNc1ccc2ncn3c4ccccc4c(=O)c1c23` [C-2028], at UGT 1A6, the “Glucuronidation potency UGT 1A6” value was “−”.
